# Measurements taken from paper PMC12052742, “Engineering a newly identified alcohol dehydrogenase from Sphingobium Sp. for efficient utilization of nicotinamide cofactors biomimetics” (Bioresources and Bioprocessing, 2025).
# What was measured:
# Assay type in all cases: biochemical, Sphingobium sp. SYK-6
# [1] = system: SpADH2 variants (H43L, A290I, H43L/A290I); assay: Cofactor spectrum (HPLC specific activity), all variants together; conditions: 1a 5 mM, cofactor 7.5 mM, pH 7.5, 30℃
# Experimental: Fig. 8 Cofactor spectrums of SpADH2 and its variants. The darkness of color for each cofactor stands for the activity. For each cofactor cube, top left: WT, top right: H43L, bottom left: A290I, bottom right: H43L/A290I. (a) Natural cofactors and NMN^+ are shown in purple. (b) tsNCBs are shown in cyan. The evaluation of cofactor spectrum was carried out under following conditions: 50 mM PBS buffer (pH 7.5) and 30℃, with 1a (5 mM) as substrate and different cofactors (7.5 mM) as cofactor. For NAD(P)^+ and NMN^+, 0.05 µg enzyme was added, and for tsNCBs, 5 µg enzyme was added. The results were analyzed by HPLC after 1 h reaction
# Specific activity of SpADH2 in cofactor spectrum study was determined by HPLC analysis. PBS (pH 7.5) buffer was pre-heated at 30°C for 15 min. For NAD(P)^+ and NMN^+, 0.05 µg SpADH2 was added to PBS buffer (100 µL). For tsNCBs, 5 µg SpADH2 was added. A final concentration of 7.5 mM cofactor was added to the reaction mixture. Finally, a final concentration of 5 mM substrate was added to start the reaction. The reactions were conducted at 30°C.
# One unit of enzyme activity is defined as the amount of enzyme required to form 1 µmol 1b per minute at pH 7.5 and 30°C. Same reaction without cofactor was used as a blank control.
# [2] = system: SpADH2 variant H43L/A290I; assay: Activity of variant in oxidation of syringyl alcohol with p-BANA^+ (Fig. 5), H43L/A290I; conditions: cofactor p-BANA^+
# Experimental: (§1) In the first round of screening, saturation mutagenesis was constructed for six positions (W114, T177, G172, G316, A47, and R227). […] Therefore, in the second round of mutagenesis, six additional sites within the 5 Å range of the cofactor ribose (H43, V202, T265, V288, G289, and A290) were selected for saturation mutagenesis screening (Fig. 6c and Fig. S6). Three beneficial mutations were identified. […] Subsequently, combinatorial mutagenesis was performed, resulting in 11 double variants and 3 triple variants.
# (§2) Fig. 5 Relative activity of SpADH2 and its variants in oxidation of syringyl alcohol when utilizing p-BANA^+ as cofactor
# (§3) In preliminary screening by spectrophotometric analysis, PBS (pH 7.5) buffer (50 µL) in a 96-well plate was pre-warmed at 30°C for 15 min, and a final concentration of 5 mM p-BANA^+ and 1 mM substrate syringyl alcohol were added, and 50 µL of crude enzyme were add to each well to start the reaction, with WT as control. The reaction mixture was incubated at 30°C for 1 h, followed by addition of fluorescent probes in a final concentration of 0.2 mM, and was subjected to determination under 537 nm as described above.
# SpADH2 variant H43L = assay: Cofactor kinetic assay, H43L
# Experimental: Specific activity of SpADH2 in substrate spectrum study was measured spectrophotometrically. PBS (pH 7.5) buffer was pre-heated at 30°C for 15 min. For NAD^+, 0.05 µg SpADH2 was added to the PBS buffer (100 µL), and a final concentration of 2 mM NAD^+ was added. For tsNCBs cofactor p-BANA^+, 5 µg SpADH2 and a final concentration of 7.5 mM p-BANA^+ was added. The mixture was carried out in a 96-well microplate, and a final concentration of 5 mM substrate was added to start the reaction. The microplate was incubated in 30°C for 1 h. Florescent probes (2-[2-(1,4-dihydro-1-methyl-3-quinolinyl)ethenyl]-1,3,3-trimethyl-3H-indolium) in a final concentration of 0.2 mM (100 µL) was added (Scheme S1), and the microplate was placed in a microplate reader immediately for measurement under 537 nm (Fomin et al. [2016]).
# Kinetic analysis of SpADH2 and its variants were carried out following Michaelis-Menten equation or Michaelis-Menten excess substrate inhibition equation. For of the substrate kinetic assays, concentrations of cofactors were fixed at 5 mM for NAD^+ and 7.5 mM for p-BANA^+. For cofactor kinetic assays, the concentration of 1a was fixed at 5 mM.
# Specific activity was determined spectrophotometrically as above except that gradient 1a (0−20 mM) or cofactor (0−35 mM) concentrations were applied.
# Cofactor specificity ratio (CSR) represents the ratio of catalytic efficiency of p-BANA^+ to NAD^+ for each enzyme, and relative specificity (RS) stands for the CSR ratio of variants to WT (King et al. [2020]).
# SpADH2 variant A47S = assay: Activity of variant in oxidation of syringyl alcohol with p-BANA^+ (Fig. 5), A47S; conditions: cofactor p-BANA^+, substrate syringyl alcohol
# Experimental: as §1, §2, §3
# SpADH2 variant A290V = assay: Activity of variant in oxidation of syringyl alcohol with p-BANA^+ (Fig. 5), A290V; conditions: cofactor p-BANA^+, substrate syringyl alcohol
# Experimental: as §1, §2, §3
# SpADH2 variant A47G = assay: Activity of variant in oxidation of syringyl alcohol with p-BANA^+ (Fig. 5), A47G; conditions: cofactor p-BANA^+, substrate syringyl alcohol
# Experimental: as §1, §2, §3
structure (smiles),measurement,setting,value
"NC(=O)c1ccc[n+](Cc2ccc(C(=O)O)cc2)c1 [p-BANA^+, para-3-carbamoyl-1-(4-carboxybenzyl)pyridin-1-ium]",catalytic activity of all variants with the cofactor (in words),[1],highest activity
same,fold higher activity than WT,[2]; substrate syringyl alcohol,7 fold
same,activity,[2]; substrate syringyl alcohol (Fig. 5),70 U/g
same,kcat,"SpADH2 variant H43L; cofactor (= label) varied, 1a fixed at 5 mM",5.1 ± 2.0 min^− 1
same,Km,"SpADH2 variant H43L; cofactor (= label) varied, 1a fixed at 5 mM, pH 7.5, 30°C",28 ± 13 mM
same,Ki,"SpADH2 variant H43L; cofactor (= label) varied, 1a fixed at 5 mM, read-out: Ki (cofactor inhibition)",5.4 ± 2.5 mM
same,Cofactor specificity ratio (catalytic efficiency of p-BANA^+ to NAD^+),SpADH2 variant H43L; cofactor kinetics,3.08×10^-4
same,Relative specificity (CSR ratio of variant to WT),SpADH2 variant H43L; cofactor kinetics,8.08
same,fold higher activity than WT,SpADH2 variant A47S,1.8 fold
same,fold increase in activity vs WT,SpADH2 variant A290V,3 fold
same,fold higher activity than WT,SpADH2 variant A47G,1.3 fold
